This note sets out measurements from ChEMBL document CHEMBL3124876, “A perylene derivative regulates HIF-1α and Stat3 signaling pathways” (Bioorg Med Chem, 2014).

Calls of active or inactive are those of the source. The calls are words filed in the database; no cut-off is given here.

Experiment [1] concerns the target Signal transducer and activator of transcription 3 (Homo sapiens) (UniProt P40763). Nature of the experiment: Inhibition of Stat3 in human MDA-MB-231 cells assessed as inhibition of Stat3 phosphorylation at 10 uM after 18 hrs by Western blotting analysis. Type of experiment: cell-based.
The test system of experiment [2] is MDA-MB-231. Nature of the experiment: Anticancer activity in human MDA-MB-231 cells assessed as reduction of total Stat3 level at 10 uM after 18 hrs by Western blotting analysis. Type of experiment: functional, cell-based. In general terms: Immunoblotting shows a protein as a band on a membrane.
Experiment [3] addresses Hypoxia-inducible factor 1-alpha (Homo sapiens) (UniProt Q16665). Nature of the experiment: Inhibition of HIF-1alpha in human MDA-MB-231 cells at 10 uM after 18 hrs by Western blotting analysis in hypoxia condition. Type of experiment: cell-based.
For experiment [4], the target named is Signal transducer and activator of transcription 3 (Homo sapiens) (UniProt P40763). Nature of the experiment: Inhibition of Stat3 phosphorylation in human MDA-MB-231 cells assessed as inhibition of c-Myc expression at 1 to 20 uM by Western blotting analysis. Type of experiment: cell-based.
Chain of Signal transducer and activator of transcription 3 (Homo sapiens) (P40763 whole entry): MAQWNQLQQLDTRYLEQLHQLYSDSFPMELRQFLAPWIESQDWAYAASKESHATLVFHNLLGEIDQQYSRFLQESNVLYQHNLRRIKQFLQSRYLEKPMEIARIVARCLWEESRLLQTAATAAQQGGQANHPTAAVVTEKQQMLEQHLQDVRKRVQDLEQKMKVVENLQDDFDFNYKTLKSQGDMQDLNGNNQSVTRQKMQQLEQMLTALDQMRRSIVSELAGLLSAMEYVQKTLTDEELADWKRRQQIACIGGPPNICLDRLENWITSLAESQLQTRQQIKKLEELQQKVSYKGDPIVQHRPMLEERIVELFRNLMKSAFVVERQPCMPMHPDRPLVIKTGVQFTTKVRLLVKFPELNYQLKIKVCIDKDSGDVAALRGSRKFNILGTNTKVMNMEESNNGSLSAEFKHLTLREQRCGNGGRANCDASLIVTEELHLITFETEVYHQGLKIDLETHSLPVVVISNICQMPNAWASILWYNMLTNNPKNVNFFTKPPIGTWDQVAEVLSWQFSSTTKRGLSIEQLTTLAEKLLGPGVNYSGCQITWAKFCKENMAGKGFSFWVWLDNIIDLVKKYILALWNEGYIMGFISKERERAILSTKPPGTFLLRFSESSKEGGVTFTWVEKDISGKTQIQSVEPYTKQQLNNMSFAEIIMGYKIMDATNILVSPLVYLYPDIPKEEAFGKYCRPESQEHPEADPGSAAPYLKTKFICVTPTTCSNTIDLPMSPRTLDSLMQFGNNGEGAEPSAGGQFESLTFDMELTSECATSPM
Another experiment relates to MCF7. Nature of the experiment: Induction of apoptosis in human MCF7 cells up to 20 uM by MTT assay. Type of experiment: functional, cell-based.
In experiment [5] the target is Hypoxia-inducible factor 1-alpha (Homo sapiens) (UniProt Q16665). Nature of the experiment: Inhibition of HIF-1 alpha in human MDA-MB-231 cells at 1 to 20 uM by Western blotting analysis. Type of experiment: cell-based.
Chain of Hypoxia-inducible factor 1-alpha (Homo sapiens) (Q16665 whole entry, looked up): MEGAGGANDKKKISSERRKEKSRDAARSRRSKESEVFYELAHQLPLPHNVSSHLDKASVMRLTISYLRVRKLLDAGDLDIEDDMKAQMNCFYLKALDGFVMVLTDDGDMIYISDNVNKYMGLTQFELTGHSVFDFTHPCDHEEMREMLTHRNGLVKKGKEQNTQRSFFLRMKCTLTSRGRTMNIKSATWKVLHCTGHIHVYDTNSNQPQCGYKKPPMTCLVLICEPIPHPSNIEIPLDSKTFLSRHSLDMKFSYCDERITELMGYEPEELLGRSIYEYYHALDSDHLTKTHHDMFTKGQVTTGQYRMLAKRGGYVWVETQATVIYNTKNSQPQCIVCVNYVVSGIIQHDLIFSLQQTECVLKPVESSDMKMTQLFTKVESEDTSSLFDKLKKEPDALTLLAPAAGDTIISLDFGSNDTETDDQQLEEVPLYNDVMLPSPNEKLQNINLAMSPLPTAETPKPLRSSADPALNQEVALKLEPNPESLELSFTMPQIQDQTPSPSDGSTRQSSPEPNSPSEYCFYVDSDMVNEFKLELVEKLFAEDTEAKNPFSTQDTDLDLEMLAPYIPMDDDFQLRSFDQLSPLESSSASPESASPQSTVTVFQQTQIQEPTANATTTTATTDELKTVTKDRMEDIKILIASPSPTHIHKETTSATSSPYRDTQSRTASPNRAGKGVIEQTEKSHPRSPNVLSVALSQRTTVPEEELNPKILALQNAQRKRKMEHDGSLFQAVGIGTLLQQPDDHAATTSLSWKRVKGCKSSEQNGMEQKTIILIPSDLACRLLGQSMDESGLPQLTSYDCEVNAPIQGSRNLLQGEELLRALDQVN
For a further experiment, the species on record is Homo sapiens. Nature of the experiment: Inhibition of telomerase (unknown origin).
Experiment [6] concerns the target Signal transducer and activator of transcription 3 (Homo sapiens) (UniProt P40763). Nature of the experiment: Inhibition of Stat3 phosphorylation in human MDA-MB-231 cells at 1 to 20 uM by Western blotting analysis. Type of experiment: cell-based.
Experiment [7] relates to MDA-MB-231. Nature of the experiment: Antitumor activity against human MDA-MB-231 cells xenografted in Balb nu/nu mouse assessed as reduction in tumor growth at 10 mg/kg, ip administered every other day for 10 days. On the set-up: dose 10 mg/kg. Type of experiment: functional, organism-based. In general terms: In xenograft studies the graft and the host belong to different species.

Experiment [8] deals with Hypoxia-inducible factor 1-alpha (Homo sapiens) (UniProt Q16665). Nature of the experiment: Inhibition of HIF-1 alpha in human PANC1 cells after 3 hrs by Western blotting analysis in hypoxia condition. Type of experiment: cell-based. The note with it: PANC-1.
The target of experiment [9] is Signal transducer and activator of transcription 3 (Homo sapiens) (UniProt P40763). Nature of the experiment: Inhibition of IL6-induced STAT3 phosphorylation in human PANC1 cells after 3 hrs by Western blotting analysis in hypoxia condition. Type of experiment: cell-based. As to conditions: PANC-1.

`NCCN1C(=O)c2ccc3c4ccc5c6c(ccc(c7ccc(c2c37)C1=O)c64)C(=O)N(CCN)C5=O`: the inhibition entry in [1], in [3], in [4], in [5] and in [6] was “inactive” each time. Besides, the result in the experiment on MDA-MB-231 [2] and in the experiment on MCF7 was inactive. Also, the inhibition entry in the experiment listed under Homo sapiens was “Active”.

Consider `CN(CCCN)CCCN1C(=O)c2ccc3c4ccc5c6c(ccc(c7ccc(c2c37)C1=O)c64)C(=O)N(CCCN(C)CCCCN)C5=O`, for which the inhibition entry in [1] and in experiment [3] was “inactive” in each case. Further, the outcome in the experiment on MDA-MB-231 [2] was inactive.

`Nc1ccn([C@@H]2O[C@H](COP(=O)(O)O[C@H]3[C@@H](O)[C@H](n4cnc5c(=O)[nH]c(N)nc54)O[C@@H]3COP(=O)(O)O[C@H]3[C@@H](O)[C@H](n4cnc5c(=O)[nH]c(N)nc54)O[C@@H]3COP(=O)(O)O[C@H]3[C@@H](O)[C@H](n4cnc5c(=O)[nH]c(N)nc54)O[C@@H]3COP(=O)(O)O[C@H]3[C@@H](O)[C@H](n4ccc(N)nc4=O)O[C@@H]3COP(=O)(O)O[C@H]3[C@@H](O)[C@H](n4cnc5c(=O)[nH]c(N)nc54)O[C@@H]3COP(=O)(O)O[C@H]3[C@@H](O)[C@H](n4cnc5c(=O)[nH]c(N)nc54)O[C@@H]3COP(=O)(O)O[C@H]3[C@@H](O)[C@H](n4cnc5c(=O)[nH]c(N)nc54)O[C@@H]3COP(=O)(O)O[C@H]3[C@@H](O)[C@H](n4ccc(N)nc4=O)O[C@@H]3COP(=O)(O)O[C@H]3[C@@H](O)[C@H](n4cnc5c(=O)[nH]c(N)nc54)O[C@@H]3COP(=O)(O)O[C@H]3[C@@H](O)[C@H](n4cnc5c(=O)[nH]c(N)nc54)O[C@@H]3COP(=O)(O)O[C@H]3[C@@H](O)[C@H](n4cnc5c(=O)[nH]c(N)nc54)O[C@@H]3COP(=O)(O)O[C@H]3[C@@H](O)[C@H](n4ccc(N)nc4=O)O[C@@H]3COP(=O)(O)O[C@H]3[C@@H](O)[C@H](n4cnc5c(=O)[nH]c(N)nc54)O[C@@H]3COP(=O)(O)O[C@H]3[C@@H](O)[C@H](n4cnc5c(=O)[nH]c(N)nc54)O[C@@H]3COP(=O)(O)O[C@H]3[C@@H](O)[C@H](n4cnc5c(=O)[nH]c(N)nc54)O[C@@H]3COP(=O)(O)O)[C@@H](O)[C@H]2O)c(=O)n1`: in the experiment with MDA-MB-231 [7], the result was Active. In [8], the inhibition result is “inactive”. Also, in [9], the inhibition result is “Active”.

`NCCCN1C(=O)c2ccc3c4ccc5c6c(ccc(c7ccc(c2c37)C1=O)c64)C(=O)N(CCCN)C5=O`: the inhibition entry in experiment [1] and in experiment [3] was “inactive” each time. For the same compound, in the experiment on MDA-MB-231 [2], the outcome was inactive.
